Test results from ChEMBL document CHEMBL2073948, “Interactions of the human multidrug resistance proteins MRP1 and MRP2 with organic anions” (Mol Pharmacol, 2000).
Values belong to the compound of their own block, whether it stands above or below them.

Legend:
Assay type in all cases: functional, cell membranes, Membrane vesicle
[1] = target: T1, Multidrug resistance-associated protein 1 (Homo sapiens, UniProt P33527); assay: TP_TRANSPORTER: uptake in membrane vesicles from MRP1-expressing Sf9 cells
T1 sequence (P33527 whole entry): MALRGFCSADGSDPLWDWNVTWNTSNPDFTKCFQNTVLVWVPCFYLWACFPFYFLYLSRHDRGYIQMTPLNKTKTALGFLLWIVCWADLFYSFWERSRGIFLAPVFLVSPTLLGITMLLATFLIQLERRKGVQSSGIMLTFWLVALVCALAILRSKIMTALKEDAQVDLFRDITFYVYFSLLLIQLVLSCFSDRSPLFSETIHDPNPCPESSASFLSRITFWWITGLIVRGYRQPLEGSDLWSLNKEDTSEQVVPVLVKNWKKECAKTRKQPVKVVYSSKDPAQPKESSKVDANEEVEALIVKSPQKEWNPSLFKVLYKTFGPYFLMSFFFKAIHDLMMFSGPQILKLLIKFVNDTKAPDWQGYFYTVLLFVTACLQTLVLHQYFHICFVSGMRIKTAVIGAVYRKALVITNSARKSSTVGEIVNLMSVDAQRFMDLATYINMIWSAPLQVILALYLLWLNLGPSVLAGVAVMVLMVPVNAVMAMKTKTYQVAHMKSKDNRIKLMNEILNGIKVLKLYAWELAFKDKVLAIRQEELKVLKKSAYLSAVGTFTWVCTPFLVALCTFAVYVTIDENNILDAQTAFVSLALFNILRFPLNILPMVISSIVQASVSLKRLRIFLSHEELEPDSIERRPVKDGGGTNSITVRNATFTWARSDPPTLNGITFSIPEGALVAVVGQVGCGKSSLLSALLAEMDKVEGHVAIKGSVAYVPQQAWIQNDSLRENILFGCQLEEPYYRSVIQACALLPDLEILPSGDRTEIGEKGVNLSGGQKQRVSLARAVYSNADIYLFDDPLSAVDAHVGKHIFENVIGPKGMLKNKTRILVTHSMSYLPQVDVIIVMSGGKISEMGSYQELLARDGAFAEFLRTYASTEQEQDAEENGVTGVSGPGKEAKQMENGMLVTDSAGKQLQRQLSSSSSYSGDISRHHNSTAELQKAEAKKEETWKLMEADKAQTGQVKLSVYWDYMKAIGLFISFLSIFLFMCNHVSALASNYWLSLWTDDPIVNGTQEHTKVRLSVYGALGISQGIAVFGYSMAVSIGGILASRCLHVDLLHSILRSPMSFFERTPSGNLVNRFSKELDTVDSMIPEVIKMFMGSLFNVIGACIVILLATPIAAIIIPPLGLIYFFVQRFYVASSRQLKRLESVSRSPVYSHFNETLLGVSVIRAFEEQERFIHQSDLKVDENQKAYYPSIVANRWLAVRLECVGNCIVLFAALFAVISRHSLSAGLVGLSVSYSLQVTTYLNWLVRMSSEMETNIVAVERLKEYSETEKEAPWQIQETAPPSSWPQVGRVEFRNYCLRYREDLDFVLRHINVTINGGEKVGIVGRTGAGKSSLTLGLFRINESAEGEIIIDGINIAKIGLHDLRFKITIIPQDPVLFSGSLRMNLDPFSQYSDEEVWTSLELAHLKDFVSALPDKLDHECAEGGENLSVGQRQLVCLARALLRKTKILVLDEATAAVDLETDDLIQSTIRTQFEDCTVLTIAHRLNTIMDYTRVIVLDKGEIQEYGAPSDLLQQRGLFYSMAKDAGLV

[2] = target: T2, ATP-binding cassette sub-family C member 2 (Homo sapiens, UniProt Q92887); assay: TP_TRANSPORTER: uptake in membrane vesicles from MRP2-expressing Sf9 cells
T2 sequence (Q92887 whole entry): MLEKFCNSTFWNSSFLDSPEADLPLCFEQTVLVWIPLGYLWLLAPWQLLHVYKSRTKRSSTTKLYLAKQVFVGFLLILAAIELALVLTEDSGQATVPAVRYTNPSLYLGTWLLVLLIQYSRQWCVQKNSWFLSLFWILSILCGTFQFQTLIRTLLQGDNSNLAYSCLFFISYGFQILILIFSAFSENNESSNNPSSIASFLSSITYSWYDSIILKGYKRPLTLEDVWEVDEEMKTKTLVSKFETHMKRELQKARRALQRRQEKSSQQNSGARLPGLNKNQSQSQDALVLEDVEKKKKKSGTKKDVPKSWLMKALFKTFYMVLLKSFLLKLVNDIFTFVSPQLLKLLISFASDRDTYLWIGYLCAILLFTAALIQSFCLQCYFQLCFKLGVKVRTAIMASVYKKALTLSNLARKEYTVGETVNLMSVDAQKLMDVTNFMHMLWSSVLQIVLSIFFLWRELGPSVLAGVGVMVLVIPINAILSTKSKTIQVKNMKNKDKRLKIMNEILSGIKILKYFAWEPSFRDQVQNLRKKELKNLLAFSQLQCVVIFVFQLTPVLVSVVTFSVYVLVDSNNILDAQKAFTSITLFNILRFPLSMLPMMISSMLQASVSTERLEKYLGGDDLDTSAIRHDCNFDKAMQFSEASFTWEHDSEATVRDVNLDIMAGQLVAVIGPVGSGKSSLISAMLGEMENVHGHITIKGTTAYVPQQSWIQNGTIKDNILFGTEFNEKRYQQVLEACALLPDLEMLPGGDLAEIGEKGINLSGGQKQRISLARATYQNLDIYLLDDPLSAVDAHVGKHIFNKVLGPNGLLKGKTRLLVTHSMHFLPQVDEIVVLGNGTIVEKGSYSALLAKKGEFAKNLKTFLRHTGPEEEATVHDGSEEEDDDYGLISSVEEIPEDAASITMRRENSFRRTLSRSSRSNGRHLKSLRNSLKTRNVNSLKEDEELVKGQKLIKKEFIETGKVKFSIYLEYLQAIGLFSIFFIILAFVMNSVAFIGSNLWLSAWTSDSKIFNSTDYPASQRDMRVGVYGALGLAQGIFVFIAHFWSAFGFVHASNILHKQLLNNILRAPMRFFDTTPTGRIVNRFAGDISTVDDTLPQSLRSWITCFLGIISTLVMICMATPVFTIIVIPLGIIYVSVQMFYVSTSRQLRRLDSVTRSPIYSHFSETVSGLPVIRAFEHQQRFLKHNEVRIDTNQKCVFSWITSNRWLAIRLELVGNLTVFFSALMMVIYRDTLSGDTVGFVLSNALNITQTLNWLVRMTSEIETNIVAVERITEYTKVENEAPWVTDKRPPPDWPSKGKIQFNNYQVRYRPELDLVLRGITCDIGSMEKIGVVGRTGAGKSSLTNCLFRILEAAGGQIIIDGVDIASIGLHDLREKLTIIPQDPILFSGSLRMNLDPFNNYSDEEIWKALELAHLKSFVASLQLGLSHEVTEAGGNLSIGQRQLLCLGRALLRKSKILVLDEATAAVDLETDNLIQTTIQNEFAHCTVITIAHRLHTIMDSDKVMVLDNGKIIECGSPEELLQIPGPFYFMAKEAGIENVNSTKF

[3] = target: T2, ATP-binding cassette sub-family C member 2; assay: TP_TRANSPORTER: inhibition of NEM-GS uptake (NEM-GS: 4 uM, Furosemide: 5000 uM) in membrane vesicles from MRP2-expressing Sf9 cells; settings: sf9, 5000 µM
[4] = target: T2, ATP-binding cassette sub-family C member 2; assay: TP_TRANSPORTER: inhibition of NEM-GS uptake (NEM-GS: 4 uM, Probenecid: <1000 uM) in membrane vesicles from MRP2-expressing Sf9 cells
[5] = target: T1, Multidrug resistance-associated protein 1; assay: TP_TRANSPORTER: inhibition of NEM-GS uptake (NEM-GS: 4 uM, Probenecid: <1000 uM) in membrane vesicles from MRP1-expressing Sf9 cells

K1/2 [1]: 200 µM | K1/2 [2]: 2500 µM
SMILES: NC(CCC(=O)NC(CNCC(=O)O)CSCCN1C(=O)C=CC1=O)C(=O)O (stereo not given)

Activity [3]: inhibitor [+]
SMILES: NS(=O)(=O)c1cc(C(=O)O)c(NCc2ccco2)cc1Cl [FUROSEMIDE]

Activity [4]: inhibitor [+] | Activity [5]: inhibitor [+]
SMILES: CCCN(CCC)S(=O)(=O)c1ccc(C(=O)O)cc1 [PROBENECID]
